Assay results reported in patent publication US10472364B2 (Calithera Biosciences, Inc., priority 2016, dated 2019).

How the values were obtained:
[1] = target: recombinant CD73 (Homo sapiens (Human), UniProt P21589); assay: Inhibition of the CD73 enzyme in vitro (soluble recombinant CD73, Malachite Green); format: biochemical; conditions: recombinant CD73 0.5 nM, AMP 50 μM, 30 minutes at room temperature
Protocol: The concentration of inorganic phosphate was determined using a phosphate standard curve.

[2] = target: endogenous, cell-bound CD73 on SK-MEL-28 cells (Homo sapiens (Human), UniProt P21589); assay: Inhibition of endogenous, cell-bound CD73 enzyme activity in SK-MEL-28 cells (Malachite Green); format: cell-based; conditions: 100 μM AMP, 30 minutes at room temperature
endogenous, cell-bound CD73 on SK-MEL-28 cells, sequence (P21589 27-574): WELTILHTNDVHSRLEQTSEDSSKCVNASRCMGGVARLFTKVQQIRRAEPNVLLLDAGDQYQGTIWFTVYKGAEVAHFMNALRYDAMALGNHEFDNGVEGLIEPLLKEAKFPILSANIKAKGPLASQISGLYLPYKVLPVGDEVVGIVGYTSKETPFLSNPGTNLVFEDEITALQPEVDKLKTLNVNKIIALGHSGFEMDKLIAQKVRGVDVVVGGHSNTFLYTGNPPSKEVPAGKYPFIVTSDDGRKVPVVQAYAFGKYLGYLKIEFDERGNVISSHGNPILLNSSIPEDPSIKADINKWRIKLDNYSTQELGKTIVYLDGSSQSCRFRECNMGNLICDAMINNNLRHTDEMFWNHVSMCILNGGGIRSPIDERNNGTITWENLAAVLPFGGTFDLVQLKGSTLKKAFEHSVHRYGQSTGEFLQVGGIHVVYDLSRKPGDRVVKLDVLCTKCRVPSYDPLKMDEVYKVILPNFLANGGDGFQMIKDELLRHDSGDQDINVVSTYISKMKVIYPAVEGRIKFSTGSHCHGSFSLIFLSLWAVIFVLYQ
Protocol: The day before the experiment, 5000 cells were plated per well in a 96-well plate. Cells were washed twice with […] reaction buffer (20 mM HEPES, pH 7.4, 125 mM NaCl, 1 mM KCl, 2 mM MgCl2, 10 mM glucose) to remove residual inorganic phosphate. After washing, assays contained serial dilutions of test compounds and 100 μM of AMP in a total volume of 200 μL reaction buffer, with a final DMSO concentration≤0.5%. After 30 minutes at room temperature, supernatant was removed from the cells. […] The concentration of inorganic phosphate was determined using a phosphate standard curve to determine IC50.

recombinant CD73, sequence (P21589 27-547): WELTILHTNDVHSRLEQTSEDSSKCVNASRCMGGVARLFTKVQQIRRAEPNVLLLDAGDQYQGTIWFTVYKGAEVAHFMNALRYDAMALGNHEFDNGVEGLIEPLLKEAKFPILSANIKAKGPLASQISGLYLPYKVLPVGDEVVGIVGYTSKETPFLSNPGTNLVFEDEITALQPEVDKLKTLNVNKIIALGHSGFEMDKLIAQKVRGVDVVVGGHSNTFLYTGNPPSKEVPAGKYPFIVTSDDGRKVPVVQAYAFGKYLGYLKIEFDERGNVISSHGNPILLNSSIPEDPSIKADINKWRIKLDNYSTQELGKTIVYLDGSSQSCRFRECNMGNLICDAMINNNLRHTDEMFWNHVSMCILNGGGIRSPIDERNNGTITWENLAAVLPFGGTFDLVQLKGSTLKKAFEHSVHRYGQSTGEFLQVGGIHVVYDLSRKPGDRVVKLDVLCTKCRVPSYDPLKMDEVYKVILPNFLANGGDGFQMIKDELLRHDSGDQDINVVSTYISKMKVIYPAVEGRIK

Row | IC50 [1] | IC50 [2] | Compound
1 | 322 nM | – | COC(=O)c1ccc(CC(OC[C@H]2O[C@@H](n3cnc4c(N)nc(Cl)nc43)[C@@H](F)[C@@H]2O)(C(=O)O)C(=O)O)cc1 [compound 91, 2-(((2R,3R,4S,5R)-5-(6-amino-2-chloro-9H-purin-9-yl)-4-fluoro-3-hydroxytetrahydrofuran-2-yl)methoxy)-2-(4-(methoxycarbonyl)benzyl)malonic acid]
2 | 8610 nM | 1240 nM | Cn1nc(CC(OC[C@H]2O[C@@H](n3cnc4c(N)nc(Cl)nc43)[C@@H](F)[C@@H]2O)(C(=O)O)C(=O)O)cc1C(=O)O [compound 73, 2-(((2R,3R,4S,5R)-5-(6-amino-2-chloro-9H-purin-9-yl)-4-fluoro-3-hydroxytetrahydrofuran-2-yl)methoxy)-2-((5-carboxy-1-methyl-1H-pyrazol-3-yl)methyl)malonic acid]
3 | – | 1370 nM | COc1ccc(CC(OC[C@H]2O[C@@H](n3cnc4c(N)nc(Cl)nc43)[C@@H](F)[C@@H]2O)(C(=O)O)C(=O)O)cc1Cl [compound 85, 2-(((2R,3R,4S,5R)-5-(6-amino-2-chloro-9H-purin-9-yl)-4-fluoro-3-hydroxytetrahydrofuran-2-yl)methoxy)-2-(3-chloro-4-methoxybenzyl)malonic acid]
4 | – | 924 nM | Nc1nc(Cl)nc2c1ncn2[C@@H]1O[C@H](COC(Cc2csc(C(=O)O)n2)(C(=O)O)C(=O)O)[C@@H](O)[C@@H]1F [compound 68, 2-(((2R,3R,4S,5R)-5-(6-amino-2-chloro-9H-purin-9-yl)-4-fluoro-3-hydroxytetrahydro-furan-2-yl)methoxy)-2-((2-carboxythiazol-4-yl)methyl)malonic acid]
5 | – | 4120 nM | COC(=O)C(Cc1ccc(-c2ccccc2)cc1)(OC[C@H]1O[C@@H](n2cnc3c(N)nc(Cl)nc32)[C@@H](F)[C@@H]1O)C(=O)O (single isomer, unassigned) [compound 82]
6 | – | 1330 nM | Nc1nc(Cl)nc2c1ncn2[C@@H]1O[C@H](COC(Cc2ccc(C(=O)O)s2)(C(=O)O)C(=O)O)[C@@H](O)[C@@H]1F [compound 77, 2-(((2R,3R,4S,5R)-5-(6-amino-2-chloro-9H-purin-9-yl)-4-fluoro-3-hydroxytetrahydro-furan-2-yl)methoxy)-2-((5-carboxythiophen-2-yl)methyl)malonic acid]
7 | – | 5200 nM | Nc1nc(Cl)nc2c1ncn2[C@@H]1O[C@H](COC(Cc2cc(C(=O)O)no2)(C(=O)O)C(=O)O)[C@@H](O)[C@@H]1F [compound 83, 2-(((2R,3R,4S,5R)-5-(6-amino-2-chloro-9H-purin-9-yl)-4-fluoro-3-hydroxytetrahydrofuran-2-yl)methoxy)-2-((3-carboxyisoxazol-5-yl)methyl)malonic acid]
8 | – | 70 nM | Nc1nc(Cl)nc2c1ncn2[C@@H]1O[C@H](COC(Cc2ccc(OCC(F)(F)F)cc2)(C(=O)O)C(=O)O)[C@@H](O)[C@@H]1F [compound 89, 2-(((2R,3R,4S,5R)-5-(6-amino-2-chloro-9H-purin-9-yl)-4-fluoro-3-hydroxytetrahydrofuran-2-yl)methoxy)-2-(4-(2,2,2-trifluoroethoxy)benzyl)malonic acid]
9 | – | 549 nM | Nc1nc(Cl)nc2c1ncn2[C@@H]1O[C@H](COC(Cc2ccc(C(=O)NCCC(=O)O)cc2)(C(=O)O)C(=O)O)[C@@H](O)[C@@H]1F [compound 87, 2-(((2R,3R,4S,5R)-5-(6-amino-2-chloro-9H-purin-9-yl)-4-fluoro-3-hydroxytetrahydro-furan-2-yl)methoxy)-2-(4-((2-carboxy-ethyl)carbamoyl)benzyl)malonic acid]
10 | – | 305 nM | Nc1nc(Cl)nc2c1ncn2[C@@H]1O[C@H](COC(Cc2csc(C(=O)O)c2)(C(=O)O)C(=O)O)[C@@H](O)[C@@H]1F [compound 76, 2-(((2R,3R,4S,5R)-5-(6-amino-2-chloro-9H-purin-9-yl)-4-fluoro-3-hydroxytetrahydro-furan-2-yl)methoxy)-2-((5-carboxythiophen-3-yl)methyl)malonic acid]

Further lines, the molecule ahead of its results:

Row | Compound | IC50 [1] | IC50 [2]
11 | Cc1cn([C@H]2C[C@H](O)[C@@H](COC(C(=O)O)C(=O)O)O2)c(=O)[nH]c1=O [compound 14, 2-(((2R,3S,5R)-3-hydroxy-5-(5-methyl-2,4-dioxo-3,4-dihydropyrimidin-1(2H)-yl)tetrahydrofuran-2-yl)methoxy)malonic acid] | > 50000 nM | –
12 | Nc1nc(Cl)nc2c1ncn2[C@@H]1O[C@H](COC(Cc2ccc(-c3nnn[nH]3)cc2)(C(=O)O)C(=O)O)[C@@H](O)[C@@H]1F [compound 54, 2-(4-(1H-tetrazol-5-yl)benzyl)-2-(((2R,3R,4S,5R)-5-(6-amino-2-chloro-9H-purin-9-yl)-4-fluoro-3-hydroxytetrahydro-furan-2-yl)methoxy)malonic acid] | – | 973 nM
13 | Nc1nc(Cl)nc2c1ncn2[C@@H]1O[C@H](COC(Cc2ccc(C(F)(F)F)nc2)(C(=O)O)C(=O)O)[C@@H](O)[C@@H]1F [compound 32, 2-(((2R,3R,4S,5R)-5-(6-amino-2-chloro-9H-purin-9-yl)-4-fluoro-3-hydroxytetrahydrofuran-2-yl)methoxy)-2-((6-(trifluoromethyl)pyridin-3-yl)methyl)malonic acid] | – | 2320 nM
14 | Nc1nc(Cl)nc2c1ncn2[C@@H]1O[C@H](COC(Cc2cccc(C(=O)O)c2)(C(=O)O)C(=O)O)[C@@H](O)[C@@H]1F [compound 42] | – | 887 nM
15 | Nc1nc(Cl)nc2c1ncn2[C@@H]1O[C@H](COC(Cc2ccc(C(F)(F)F)c(F)c2)(C(=O)O)C(=O)O)[C@@H](O)[C@@H]1F [compound 60, 2-(((2R,3R,4S,5R)-5-(6-amino-2-chloro-9H-purin-9-yl)-4-fluoro-3-hydroxytetrahydro-furan-2-yl)methoxy)-2-(3-fluoro-4-(trifluoromethyl)benzyl)malonic acid] | – | 512 nM
16 | Nc1nc(Cl)nc2c1ncn2[C@@H]1O[C@H](COC(Cc2ccc(C(=O)O)c(F)c2)(C(=O)O)C(=O)O)[C@@H](O)[C@@H]1F [compound 58, 2-(((2R,3R,4S,5R)-5-(6-amino-2-chloro-9H-purin-9-yl)-4-fluoro-3-hydroxytetrahydro-furan-2-yl)methoxy)-2-(4-carboxy-3-fluorobenzyl)malonic acid] | – | 853 nM
17 | CN(C)C(=O)c1cccc(CC(OC[C@H]2O[C@@H](n3cnc4c(N)nc(Cl)nc43)[C@@H](F)[C@@H]2O)(C(=O)O)C(=O)O)c1 [compound 22] | – | 1140 nM
18 | Nc1nc(Cl)nc2c1ncn2[C@@H]1O[C@H](COC(Cc2ccc(CO)cc2)(C(=O)O)C(=O)O)[C@@H](O)[C@@H]1F [compound 39] | – | 493 nM
19 | Nc1nc(Cl)nc2c1ncn2[C@@H]1O[C@H](COC(Cc2nnn[nH]2)(C(=O)O)C(=O)O)[C@@H](O)[C@@H]1F [compound 50, 2-((1H-tetrazol-5-yl)methyl)-2-(((2R,3R,4S,5R)-5-(6-amino-2-chloro-9H-purin-9-yl)-4-fluoro-3-hydroxytetrahydrofuran-2-yl)methoxy)malonic acid] | – | 6370 nM
20 | Nc1nc(Cl)nc2c1ncn2[C@@H]1O[C@H](COC(Cc2ccc(C(=O)O)cc2)(C(=O)O)C(=O)O)[C@@H](O)[C@@H]1F [compound 7, 2-(((2R,3R,4S,5R)-5-(6-amino-2-chloro-9H-purin-9-yl)-4-fluoro-3-hydroxytetrahydro-furan-2-yl)methoxy)-2-(4-carboxybenzyl)-malonic acid] | 121 nM | 257 nM
